These results are taken from ChEMBL document CHEMBL3286359, “Synthesis and SAR of substituted pyrazolo[1,5-a]quinazolines as dual mGlu(2)/mGlu(3) NAMs” (Bioorg Med Chem Lett, 2014).

Calls of active or inactive are those of the source. The rule behind the calls is not given here.

The target of data set [1] is Metabotropic glutamate receptor 3 (Rattus norvegicus) (UniProt P31422). The experiment in a line: Positive allosteric modulatory activity at rat mGlu3 receptor transfected in HEK293 cells co-expressing mouse Galpha15 assessed as potentiation of glutamate-dependent calcium signaling at 3 uM by fluorescence plate reader analysis in presence of glutamate at EC20 concentration. In kind it is functional, cell-based.
Sequence of Metabotropic glutamate receptor 3 (Rattus norvegicus) (P31422 23-879 limits assumed): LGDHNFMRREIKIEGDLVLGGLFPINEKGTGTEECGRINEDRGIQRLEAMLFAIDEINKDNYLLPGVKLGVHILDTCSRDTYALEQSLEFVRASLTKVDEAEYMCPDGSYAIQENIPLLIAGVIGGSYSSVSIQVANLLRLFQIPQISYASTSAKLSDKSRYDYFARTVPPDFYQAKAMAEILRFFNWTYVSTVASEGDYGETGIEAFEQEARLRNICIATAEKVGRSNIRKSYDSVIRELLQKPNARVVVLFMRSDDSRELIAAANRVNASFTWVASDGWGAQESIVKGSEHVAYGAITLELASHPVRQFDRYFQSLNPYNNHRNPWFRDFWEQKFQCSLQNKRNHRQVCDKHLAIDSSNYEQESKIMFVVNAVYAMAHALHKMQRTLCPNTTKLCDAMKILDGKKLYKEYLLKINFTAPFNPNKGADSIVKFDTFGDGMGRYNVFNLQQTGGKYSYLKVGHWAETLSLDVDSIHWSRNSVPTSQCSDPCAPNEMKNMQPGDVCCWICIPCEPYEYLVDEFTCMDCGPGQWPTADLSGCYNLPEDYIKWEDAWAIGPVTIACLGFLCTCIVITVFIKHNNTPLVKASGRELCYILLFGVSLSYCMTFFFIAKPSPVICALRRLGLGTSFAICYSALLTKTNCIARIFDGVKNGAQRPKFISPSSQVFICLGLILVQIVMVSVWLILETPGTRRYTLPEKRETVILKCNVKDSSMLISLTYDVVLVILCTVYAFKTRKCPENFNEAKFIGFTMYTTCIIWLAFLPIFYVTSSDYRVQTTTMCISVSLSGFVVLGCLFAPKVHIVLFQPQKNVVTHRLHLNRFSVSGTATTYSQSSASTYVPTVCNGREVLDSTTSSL

Data set [2] has as its target Metabotropic glutamate receptor 2 (Rattus norvegicus) (UniProt P31421). The experiment in a line: Positive allosteric modulatory activity at rat mGlu2 receptor transfected in HEK293 cells co-expressing mouse Galpha15 assessed as potentiation of glutamate-dependent calcium signaling at 3 uM by fluorescence plate reader analysis in presence of glutamate at EC20 concentration. In kind it is functional, cell-based.

Data set [3] has as its target Metabotropic glutamate receptor 2 (Rattus norvegicus, UniProt P31421). The experiment in a line: Inhibition of rat mGlu2 receptor transfected in HEK293 cells coexpressing mouse Galpha15 assessed as decrease in glutamate-induced calcium signaling by fluorescence plate reader analysis in presence of glutamate at EC76 concentration. In kind it is functional, cell-based.

Data set [4] deals with Metabotropic glutamate receptor 3 (Rattus norvegicus, UniProt P31422). The experiment in a line: Inhibition of rat mGlu3 receptor transfected in HEK293 cells coexpressing mouse Galpha15 assessed as decrease in glutamate-induced calcium signaling by fluorescence plate reader analysis in presence of glutamate at EC87 concentration. In kind it is functional, cell-based.
Sequence of Metabotropic glutamate receptor 3 (P31422 whole entry): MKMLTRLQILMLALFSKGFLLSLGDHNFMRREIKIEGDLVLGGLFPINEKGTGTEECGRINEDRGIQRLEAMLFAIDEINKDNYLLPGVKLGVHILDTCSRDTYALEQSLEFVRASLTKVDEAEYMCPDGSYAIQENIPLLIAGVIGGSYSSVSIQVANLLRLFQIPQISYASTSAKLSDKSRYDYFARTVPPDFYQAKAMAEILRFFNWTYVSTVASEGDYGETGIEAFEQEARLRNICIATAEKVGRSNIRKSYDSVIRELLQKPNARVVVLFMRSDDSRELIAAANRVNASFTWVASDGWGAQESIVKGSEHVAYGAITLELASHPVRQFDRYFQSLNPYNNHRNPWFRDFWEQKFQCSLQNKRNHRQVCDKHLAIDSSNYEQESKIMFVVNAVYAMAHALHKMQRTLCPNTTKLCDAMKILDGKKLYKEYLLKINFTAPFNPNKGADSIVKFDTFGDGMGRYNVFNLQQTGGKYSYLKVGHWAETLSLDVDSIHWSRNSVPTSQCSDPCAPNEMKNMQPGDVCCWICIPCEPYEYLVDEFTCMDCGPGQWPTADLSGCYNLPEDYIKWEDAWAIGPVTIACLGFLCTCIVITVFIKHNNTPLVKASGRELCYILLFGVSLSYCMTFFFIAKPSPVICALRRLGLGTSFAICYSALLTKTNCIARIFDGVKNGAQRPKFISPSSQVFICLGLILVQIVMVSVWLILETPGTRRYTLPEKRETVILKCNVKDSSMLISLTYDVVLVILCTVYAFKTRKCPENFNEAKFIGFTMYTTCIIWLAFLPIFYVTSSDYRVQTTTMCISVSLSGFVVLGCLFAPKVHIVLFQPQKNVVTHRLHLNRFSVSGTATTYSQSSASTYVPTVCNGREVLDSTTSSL
Data set [5] addresses Metabotropic glutamate receptor 2 (Rattus norvegicus) (UniProt P31421). The experiment in a line: Inhibition of rat mGlu2 receptor transfected in HEK293 cells coexpressing mouse Galpha15 assessed as decrease in glutamate-induced calcium signaling at 1 uM by fluorescence plate reader analysis in presence of glutamate at EC76 concentration. In kind it is functional, cell-based.

Data set [6] has as its target Metabotropic glutamate receptor 3 (Rattus norvegicus) (UniProt P31422). The experiment in a line: Inhibition of rat mGlu3 receptor transfected in HEK293 cells coexpressing mouse Galpha15 assessed as decrease in glutamate-induced calcium signaling at 1 uM by fluorescence plate reader analysis in presence of glutamate at EC87 concentration. In kind it is functional, cell-based.

Data set [7] concerns the target Metabotropic glutamate receptor 2 (Rattus norvegicus) (UniProt P31421). The experiment in a line: Inhibition of rat mGlu2 receptor transfected in HEK293 cells coexpressing mouse Galpha15 assessed as decrease in glutamate-induced calcium signaling at 3 uM by fluorescence plate reader analysis in presence of glutamate at EC76 concentration. In kind it is functional, cell-based.

In data set [8] the target is Metabotropic glutamate receptor 3 (Rattus norvegicus) (UniProt P31422). The experiment in a line: Inhibition of rat mGlu3 receptor transfected in HEK293 cells coexpressing mouse Galpha15 assessed as decrease in glutamate-induced calcium signaling at 3 uM by fluorescence plate reader analysis in presence of glutamate at EC87 concentration. In kind it is functional, cell-based.

For data set [9], the target named is Metabotropic glutamate receptor 2 (Rattus norvegicus) (UniProt P31421). The experiment in a line: Negative allosteric modulatory activity at rat mGlu2 receptor transfected in HEK293 cells coexpressing mouse Galpha15 assessed as decrease in glutamate-induced calcium signaling by fluorescence plate reader analysis in presence of glutamate at EC76 concentration. In kind it is functional, cell-based.
Sequence of Metabotropic glutamate receptor 2 (Rattus norvegicus) (P31421 19-872 limits assumed): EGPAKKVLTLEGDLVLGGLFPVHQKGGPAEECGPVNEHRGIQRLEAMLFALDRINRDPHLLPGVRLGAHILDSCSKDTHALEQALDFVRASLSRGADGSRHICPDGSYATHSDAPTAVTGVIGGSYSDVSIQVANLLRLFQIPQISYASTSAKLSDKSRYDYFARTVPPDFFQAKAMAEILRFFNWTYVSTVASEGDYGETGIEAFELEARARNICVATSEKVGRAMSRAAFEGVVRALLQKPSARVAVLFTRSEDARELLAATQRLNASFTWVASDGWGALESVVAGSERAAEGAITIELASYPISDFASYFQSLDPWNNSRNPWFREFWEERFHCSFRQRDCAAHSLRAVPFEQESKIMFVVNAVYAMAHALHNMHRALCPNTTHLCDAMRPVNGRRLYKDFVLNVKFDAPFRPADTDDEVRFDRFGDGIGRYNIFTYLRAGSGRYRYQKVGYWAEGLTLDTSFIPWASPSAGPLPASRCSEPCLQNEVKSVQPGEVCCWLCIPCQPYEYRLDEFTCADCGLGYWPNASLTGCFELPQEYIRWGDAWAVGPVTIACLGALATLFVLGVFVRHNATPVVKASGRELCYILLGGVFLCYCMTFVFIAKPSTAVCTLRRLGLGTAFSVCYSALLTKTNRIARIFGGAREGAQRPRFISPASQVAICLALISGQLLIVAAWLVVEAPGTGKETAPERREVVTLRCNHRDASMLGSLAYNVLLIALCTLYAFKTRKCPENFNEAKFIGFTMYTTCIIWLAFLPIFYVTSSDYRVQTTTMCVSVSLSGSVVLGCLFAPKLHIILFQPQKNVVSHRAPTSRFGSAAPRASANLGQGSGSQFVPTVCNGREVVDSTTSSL

Data set [10] has the same target. The experiment in a line: Inhibition of rat mGlu2 receptor assessed as decrease in glutamate-induced calcium signaling at 10 uM by fluorescence plate reader analysis. In kind it is functional.
In data set [11] the target is Metabotropic glutamate receptor 5 (Rattus norvegicus) (UniProt P31424). The experiment in a line: Activity at rat mGlu5 receptor assessed as glutamate-induced calcium signaling at 10 uM by fluorescence plate reader analysis. In kind it is functional.
Data set [12] concerns the target Metabotropic glutamate receptor 4 (Rattus norvegicus) (UniProt P31423). The experiment in a line: Activity at rat mGlu4 receptor assessed as glutamate-induced GIRK response at 10 uM.
In data set [13] the target is Metabotropic glutamate receptor 6 (Homo sapiens) (UniProt O15303). The experiment in a line: Activity at human mGlu6 receptor assessed as glutamate-induced GIRK response at 10 uM.
In data set [14] the target is Metabotropic glutamate receptor 7 (Rattus norvegicus) (UniProt P35400). The experiment in a line: Activity at rat mGlu7 receptor assessed as glutamate-induced GIRK response at 10 uM.
In data set [15] the target is Metabotropic glutamate receptor 8 (Rattus norvegicus) (UniProt P70579). The experiment in a line: Activity at rat mGlu8 receptor assessed as glutamate-induced GIRK response at 10 uM.
Sequence of Metabotropic glutamate receptor 8 (Rattus norvegicus) (P70579 whole entry): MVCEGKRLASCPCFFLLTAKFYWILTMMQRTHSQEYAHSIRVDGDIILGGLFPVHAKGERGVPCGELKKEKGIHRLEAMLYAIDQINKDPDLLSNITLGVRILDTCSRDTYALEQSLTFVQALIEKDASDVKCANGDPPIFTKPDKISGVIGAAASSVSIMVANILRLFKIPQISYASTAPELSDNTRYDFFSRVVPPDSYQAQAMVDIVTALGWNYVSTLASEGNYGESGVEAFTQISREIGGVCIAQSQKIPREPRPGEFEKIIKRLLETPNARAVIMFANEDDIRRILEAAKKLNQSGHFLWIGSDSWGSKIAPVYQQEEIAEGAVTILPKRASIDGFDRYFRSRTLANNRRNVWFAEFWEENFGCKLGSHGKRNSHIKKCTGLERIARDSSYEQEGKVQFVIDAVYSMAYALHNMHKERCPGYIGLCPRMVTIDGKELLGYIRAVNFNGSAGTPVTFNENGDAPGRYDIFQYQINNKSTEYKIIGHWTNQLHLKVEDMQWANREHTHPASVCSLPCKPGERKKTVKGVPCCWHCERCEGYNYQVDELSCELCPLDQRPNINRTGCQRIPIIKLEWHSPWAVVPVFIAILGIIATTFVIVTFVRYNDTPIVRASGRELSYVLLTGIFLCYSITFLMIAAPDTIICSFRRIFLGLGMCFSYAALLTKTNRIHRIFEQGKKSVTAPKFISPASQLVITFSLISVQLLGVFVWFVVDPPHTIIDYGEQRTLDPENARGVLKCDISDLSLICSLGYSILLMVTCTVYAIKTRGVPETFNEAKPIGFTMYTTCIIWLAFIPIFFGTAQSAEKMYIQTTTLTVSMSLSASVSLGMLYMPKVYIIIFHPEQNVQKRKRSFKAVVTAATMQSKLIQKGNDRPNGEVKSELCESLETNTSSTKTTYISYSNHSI
Data set [16] concerns Plasma. The experiment in a line: Fraction unbound in human plasma. In kind it is ADME, cell-free.
Data set [17] has as its system Plasma. The experiment in a line: Fraction unbound in rat plasma. In kind it is ADME, cell-free.
Data set [18] concerns the target Metabotropic glutamate receptor 3 (Rattus norvegicus) (UniProt P31422). The note with it: 10 uM.
Description: Inhibition of rat mGlu3 receptor assessed as decrease in glutamate-induced calcium signaling at 10 uM by fluorescence plate reader analysis

Sequence of Metabotropic glutamate receptor 2 (P31421 whole entry): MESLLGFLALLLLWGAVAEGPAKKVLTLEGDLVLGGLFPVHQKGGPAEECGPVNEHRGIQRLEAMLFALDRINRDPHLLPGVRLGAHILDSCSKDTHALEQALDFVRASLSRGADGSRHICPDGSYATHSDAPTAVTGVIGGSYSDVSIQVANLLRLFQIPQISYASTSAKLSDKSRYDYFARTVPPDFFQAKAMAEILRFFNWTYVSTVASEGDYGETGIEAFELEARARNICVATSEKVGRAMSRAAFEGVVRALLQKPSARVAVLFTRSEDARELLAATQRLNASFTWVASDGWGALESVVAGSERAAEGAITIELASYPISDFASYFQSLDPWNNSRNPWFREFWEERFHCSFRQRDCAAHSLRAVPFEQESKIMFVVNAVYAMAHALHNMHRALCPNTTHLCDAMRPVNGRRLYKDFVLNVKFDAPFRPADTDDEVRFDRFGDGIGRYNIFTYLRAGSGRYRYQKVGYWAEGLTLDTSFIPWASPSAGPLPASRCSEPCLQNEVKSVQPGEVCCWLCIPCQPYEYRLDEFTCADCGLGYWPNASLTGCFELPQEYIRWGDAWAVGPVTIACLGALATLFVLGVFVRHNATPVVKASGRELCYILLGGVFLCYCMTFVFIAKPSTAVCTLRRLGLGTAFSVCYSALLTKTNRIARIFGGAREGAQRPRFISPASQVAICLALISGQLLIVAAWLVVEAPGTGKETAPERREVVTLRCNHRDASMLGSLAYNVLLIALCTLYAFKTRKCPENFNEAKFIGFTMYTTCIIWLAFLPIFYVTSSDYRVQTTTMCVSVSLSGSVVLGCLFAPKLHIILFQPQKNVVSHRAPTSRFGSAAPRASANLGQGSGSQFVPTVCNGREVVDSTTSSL

For `Cn1c(=O)c2ccc(-c3cccnc3)cc2n2nc(-c3ccc(Cl)cc3)cc12`, the outcome in data set [1] and in data set [2] was inactive. Also, the figures for the IC50 in data set [3] and in data set [4] were 1110 nM and 645 nM, respectively. In addition, the inhibition in [5] and in data set [6] was 60% in each case.

For the compound `COc1ccc(-c2ccc3c(=O)n(C)c4cc(-c5ccc(Cl)cc5)nn4c3c2)cc1`, the outcome in data set [1] and in data set [2] was inactive. In addition, the inhibition – broadly, the percentage by which the read-out fell short of the control – turned out to be 6% in [7], 21% in data set [8], 60% in [5] and 60% in data set [6].

Regarding `Cn1c(=O)c2ccc(-c3ccccc3)cc2n2nc(-c3ccc(Cl)cc3)cc12`, the result in [1] and in data set [2] was inactive. The inhibition in data set [7] turned out to be 4%; in data set [8], 31%; in data set [5], 60%; in data set [6] it was 60%.

Consider `Cn1c(=O)c2ccc(-c3cccc(S(N)(=O)=O)c3)cc2n2nc(-c3ccc(Cl)cc3)cc12`, for which the result in data set [1] and in data set [2] was inactive. In addition, the IC50 – broadly, the midpoint of a concentration-inhibition curve – in data set [3] was determined as 847 nM; in [4] it was 1250 nM. Also, the inhibition in data set [5] and in [6] was 60% each time.

For `Cn1c(=O)c2ccc(-c3cncnc3)cc2n2nc(-c3ccccc3)cc12`, the IC50 in data set [3] was determined as 245 nM; in data set [4], 78 nM. Besides, the Activity entry in [9] is “Dose-dependent effect”. For the same compound, the inhibition result in [10] and in data set [18] was “Active” in each case. Also, the outcome in data set [11], in [12], in data set [13], in [14] and in [15] was inactive. Moreover, the Fu with Plasma [16] was determined as 0.008; in the data set on Plasma [17] it was 0.003.

As to `Cc1ccc2c(=O)n(C)c3cc(-c4ccc(Cl)cc4)nn3c2c1`, the result in [1] and in data set [2] was inactive. Moreover, the inhibition stood at 11% in data set [7], 33% in data set [8], 60% in data set [5] and 60% in data set [6].
